Results from patent US20200338045A1, “ISOINDOLINE COMPOSITIONS AND METHODS FOR TREATING NEURODEGENERATIVE DISEASE” (priority 2017, published 2020).

Tested on: hippocampal/cortical cultures
Test: Neurogranin expression study in vitro
Format: cell-based
Details: Aβ42 oligomers 500 nM 1 hr, then CT1812 4.8 nM 24 hr; 21 DIV cultures
Procedure: Neurons were fixed in 3.75% formaldehyde and stained with full-length neurogranin (Abcam catalogue # ab23570, used in combination with novel Ng7 to detect full length neurogranin in Alzheimer's disease patient brain IP; Kvartsberg et al. 2015 Blennow lab), MAP2 (Millipore), and 4G8 (Biolegend) antibodies. Imaging was performed on Cellomics VX automated microscope with a 20×, 0.75 NA objective and analyzed using a compartmental analysis algorithm to measure staining in the nucleus versus cytoplasm.

With `CC(C)(C)Oc1cc(CCC(C)(C)N2Cc3ccc(S(C)(=O)=O)cc3C2)ccc1O` [CT1812] the “full length neurogranin protein expression in neurons” value was “restores neurogranin expression”.
